Source: article PMC10600239, “Selective MCL-1 inhibitor ABBV-467 is efficacious in tumor models but is associated with cardiac troponin increases in patients” (Communications Medicine, 2023)

Key:
[1] = target: Kv11.1 (hERG) (Homo sapiens, UniProt Q12809); test: in vitro; conditions: CHO cells expressing human Kv11.1 (hERG)
[2] = test system: SU-DHL-1 cells; test: Cell viability of BAK-deficient and parental SU-DHL-1 cells (CellTiter-Glo); type: cell-based; conditions: SU-DHL-1, 24 hr
Procedure: Supplementary Fig . S4: BAK is required for ABBV-467 ac tiv ity in S U-DHL-1 cells. BAK-deficient SU- D HL -1
cells were treated with ABBV-4 67 fo r 24 hr at the indicated concentrations and the impact on cell
viability compared to the parental cell line determined by CellTiter- G lo . N=3 .
(1 picture or pasted object on this page, not shown here)

[3] = test system: H929 cells; test: Caspase-3/7 activation and viability (DRAQ7) over time by Incucyte; type: cell-based, human
Procedure: Fig. 2 Apoptosis induced by ABBV-467 is mechanism based and induces cell death in MCL-1-dependent cell lines after short target engagement periods. H929 cells were treated with ABBV-467 in the presence or absence of the pan-caspase inhibitor z-VAD-fmk (50 µM) and the impact on caspase-3/7 activation (a), mitochondrial membrane potential (ΔΨm; b), and apoptosis (c) determined. Alternatively, BAK-deficient SKBR3 cells were treated with ABBV-467 for 24 h and the impact on cell viability compared with the parental cell line, determined by CellTiter-Glo. Inset depicts a western blot of BAK and BAX expression in SKBR3 cell variants using GAPDH as a loading control. Each of the 3 proteins were probed on separate blots (d). Data in (a–d) are presented as the mean ± standard error of the mean. H929 and AMO-1 cells were treated with ABBV-467 at the indicated concentrations and the impact on caspase-3/7 activation and viability (DRAQ7-positive) cells determined over time by Incucyte®. Data are presented as the mean ± standard deviation (e). H929 or AMO-1 cells were cultured in media containing 10% human serum and treated with ABBV-467 for the indicated contact times. Cells were subsequently washed 3 times with drug-free media and incubated in drug-free media for the remainder of the 24-h treatment period at 37 °C before cell viability was determined by CellTiter-Glo. Mean EC50 and EC90 values were determined from the resulting dose-response curves from at least 3 independent experiments, each assessed in quadruplicate, and depict the mean ± standard error of the mean. Presented ABBV-467 dose-response curves in H929 and AMO-1 cells were compiled from at least 3 independent experiments (f).

Kv11.1 (hERG), sequence (Q12809 whole entry): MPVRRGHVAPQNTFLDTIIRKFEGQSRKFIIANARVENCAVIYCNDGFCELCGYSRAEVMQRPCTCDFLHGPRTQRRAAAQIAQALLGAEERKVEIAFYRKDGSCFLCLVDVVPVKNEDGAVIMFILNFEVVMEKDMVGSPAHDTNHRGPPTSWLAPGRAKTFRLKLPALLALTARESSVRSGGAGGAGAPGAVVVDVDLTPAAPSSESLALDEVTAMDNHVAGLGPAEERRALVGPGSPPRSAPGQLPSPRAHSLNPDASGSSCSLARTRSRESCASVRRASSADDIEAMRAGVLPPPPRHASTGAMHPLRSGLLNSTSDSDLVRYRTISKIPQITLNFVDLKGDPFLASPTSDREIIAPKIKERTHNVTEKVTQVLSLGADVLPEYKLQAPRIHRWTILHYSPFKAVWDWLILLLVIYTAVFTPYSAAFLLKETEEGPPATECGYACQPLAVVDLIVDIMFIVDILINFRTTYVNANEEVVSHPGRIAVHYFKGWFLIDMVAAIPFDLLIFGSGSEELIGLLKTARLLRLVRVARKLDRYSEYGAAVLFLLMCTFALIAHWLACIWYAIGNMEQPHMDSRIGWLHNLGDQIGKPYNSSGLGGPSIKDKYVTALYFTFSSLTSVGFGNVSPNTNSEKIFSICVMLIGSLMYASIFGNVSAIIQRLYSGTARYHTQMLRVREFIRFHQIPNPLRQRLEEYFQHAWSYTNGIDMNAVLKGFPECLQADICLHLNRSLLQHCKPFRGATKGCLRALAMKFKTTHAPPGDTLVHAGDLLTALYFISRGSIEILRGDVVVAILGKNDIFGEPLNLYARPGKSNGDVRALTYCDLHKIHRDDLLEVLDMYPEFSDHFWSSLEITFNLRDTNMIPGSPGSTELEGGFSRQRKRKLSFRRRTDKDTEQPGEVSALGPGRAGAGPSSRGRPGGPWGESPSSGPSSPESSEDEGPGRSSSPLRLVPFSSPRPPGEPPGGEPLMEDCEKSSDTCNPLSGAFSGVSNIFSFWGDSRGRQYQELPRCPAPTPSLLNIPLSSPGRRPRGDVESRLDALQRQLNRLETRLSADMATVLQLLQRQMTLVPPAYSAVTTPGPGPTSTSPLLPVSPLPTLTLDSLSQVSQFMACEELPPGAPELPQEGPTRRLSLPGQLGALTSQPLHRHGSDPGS

Compound: Cc1c(Cl)c2c(Cl)c(C)c1-c1c(-c3ccc(F)cc3)sc3ncnc(c13)O[C@@H](C(=O)O)Cc1cc(ccc1OCc1ccnc(-c3ccc(OC[C@H]4COCCO4)cc3)n1)OC[C@@H](CN1CCN(C)CC1)O2 [ABBV-467]
- IC50 [1]: > 30 µM
- effect of BAK deletion on activity [2]: completely inhibited
- Caspase-3/-7 Activation ([3]; ABBV-467 0.01 nM, 0 hours): 232.365
- Caspase-3/-7 Activation ([3]; ABBV-467 0.01 nM, 1 hours): 224.632
- Caspase-3/-7 Activation ([3]; ABBV-467 0.01 nM, 2 hours): 270.553
- Caspase-3/-7 Activation ([3]; ABBV-467 0.01 nM, 3 hours): 259.728
- Caspase-3/-7 Activation ([3]; ABBV-467 0.01 nM, 4 hours): 277.62
- Caspase-3/-7 Activation ([3]; ABBV-467 0.01 nM, 5 hours): 289.07
- Caspase-3/-7 Activation ([3]; ABBV-467 0.01 nM, 6 hours): 301.552
- Caspase-3/-7 Activation ([3]; ABBV-467 0.01 nM, 7 hours): 311.821
- Caspase-3/-7 Activation ([3]; ABBV-467 0.01 nM, 8 hours): 334.669
- Caspase-3/-7 Activation ([3]; ABBV-467 0.01 nM, 9 hours): 348.392
- Caspase-3/-7 Activation ([3]; ABBV-467 0.01 nM, 10 hours): 365.28
- Caspase-3/-7 Activation ([3]; ABBV-467 0.01 nM, 11 hours): 391.805
- Caspase-3/-7 Activation ([3]; ABBV-467 0.01 nM, 12 hours): 438.261
- Caspase-3/-7 Activation ([3]; ABBV-467 0.01 nM, 13 hours): 454.339
- Caspase-3/-7 Activation ([3]; ABBV-467 0.01 nM, 14 hours): 484.741
- Caspase-3/-7 Activation ([3]; ABBV-467 0.1 nM, 0 hours): 225.588
- Caspase-3/-7 Activation ([3]; ABBV-467 0.1 nM, 1 hours): 235.59
- Caspase-3/-7 Activation ([3]; ABBV-467 0.1 nM, 2 hours): 274.692
- Caspase-3/-7 Activation ([3]; ABBV-467 0.1 nM, 3 hours): 258.216
- Caspase-3/-7 Activation ([3]; ABBV-467 0.1 nM, 4 hours): 255.874
- Caspase-3/-7 Activation ([3]; ABBV-467 0.1 nM, 5 hours): 269.765
- Caspase-3/-7 Activation ([3]; ABBV-467 0.1 nM, 6 hours): 277.457
- Caspase-3/-7 Activation ([3]; ABBV-467 0.1 nM, 7 hours): 313.21
- Caspase-3/-7 Activation ([3]; ABBV-467 0.1 nM, 8 hours): 322.526
- Caspase-3/-7 Activation ([3]; ABBV-467 0.1 nM, 9 hours): 349.891
- Caspase-3/-7 Activation ([3]; ABBV-467 0.1 nM, 10 hours): 382.789
- Caspase-3/-7 Activation ([3]; ABBV-467 0.1 nM, 11 hours): 408.8
- Caspase-3/-7 Activation ([3]; ABBV-467 0.1 nM, 12 hours): 435.203
- Caspase-3/-7 Activation ([3]; ABBV-467 0.1 nM, 13 hours): 463.242
- Caspase-3/-7 Activation ([3]; ABBV-467 0.1 nM, 14 hours): 524.814
- Caspase-3/-7 Activation ([3]; ABBV-467 1 nM, 0 hours): 207.355
- Caspase-3/-7 Activation ([3]; ABBV-467 1 nM, 1 hours): 234.094
- Caspase-3/-7 Activation ([3]; ABBV-467 1 nM, 2 hours): 278.959
- Caspase-3/-7 Activation ([3]; ABBV-467 1 nM, 3 hours): 292.278
- Caspase-3/-7 Activation ([3]; ABBV-467 1 nM, 4 hours): 394.898
- Caspase-3/-7 Activation ([3]; ABBV-467 1 nM, 5 hours): 570.705
- Caspase-3/-7 Activation ([3]; ABBV-467 1 nM, 6 hours): 716.626
- Caspase-3/-7 Activation ([3]; ABBV-467 1 nM, 7 hours): 887.617
- Caspase-3/-7 Activation ([3]; ABBV-467 1 nM, 8 hours): 1099.54
- Caspase-3/-7 Activation ([3]; ABBV-467 1 nM, 9 hours): 1287.07
- Caspase-3/-7 Activation ([3]; ABBV-467 1 nM, 10 hours): 1419.14
- Caspase-3/-7 Activation ([3]; ABBV-467 1 nM, 11 hours): 1610.17
- Caspase-3/-7 Activation ([3]; ABBV-467 1 nM, 12 hours): 1722.67
- Caspase-3/-7 Activation ([3]; ABBV-467 1 nM, 13 hours): 1826.71
- Caspase-3/-7 Activation ([3]; ABBV-467 1 nM, 14 hours): 1859.69
- Caspase-3/-7 Activation ([3]; ABBV-467 10 nM, 0 hours): 233.175
- Caspase-3/-7 Activation ([3]; ABBV-467 10 nM, 1 hours): 264.944
- Caspase-3/-7 Activation ([3]; ABBV-467 10 nM, 2 hours): 553.515
- Caspase-3/-7 Activation ([3]; ABBV-467 10 nM, 3 hours): 945.842
- Caspase-3/-7 Activation ([3]; ABBV-467 10 nM, 4 hours): 1332.17
- Caspase-3/-7 Activation ([3]; ABBV-467 10 nM, 5 hours): 1650.46
- Caspase-3/-7 Activation ([3]; ABBV-467 10 nM, 6 hours): 1813.36
- Caspase-3/-7 Activation ([3]; ABBV-467 10 nM, 7 hours): 2014.88
- Caspase-3/-7 Activation ([3]; ABBV-467 10 nM, 8 hours): 2144.69
- Caspase-3/-7 Activation ([3]; ABBV-467 10 nM, 9 hours): 2203.21
- Caspase-3/-7 Activation ([3]; ABBV-467 10 nM, 10 hours): 2258.19
- Caspase-3/-7 Activation ([3]; ABBV-467 10 nM, 11 hours): 2283.58
- Caspase-3/-7 Activation ([3]; ABBV-467 10 nM, 12 hours): 2310.22
- Caspase-3/-7 Activation ([3]; ABBV-467 10 nM, 13 hours): 2302.82
- Caspase-3/-7 Activation ([3]; ABBV-467 10 nM, 14 hours): 2302.28
- Caspase-3/-7 Activation ([3]; ABBV-467 100 nM, 0 hours): 208.608
- Caspase-3/-7 Activation ([3]; ABBV-467 100 nM, 1 hours): 451.845
- Caspase-3/-7 Activation ([3]; ABBV-467 100 nM, 2 hours): 1550.74
- Caspase-3/-7 Activation ([3]; ABBV-467 100 nM, 3 hours): 2054.45
- Caspase-3/-7 Activation ([3]; ABBV-467 100 nM, 4 hours): 2191.43
- Caspase-3/-7 Activation ([3]; ABBV-467 100 nM, 5 hours): 2357.93
- Caspase-3/-7 Activation ([3]; ABBV-467 100 nM, 6 hours): 2394.62
- Caspase-3/-7 Activation ([3]; ABBV-467 100 nM, 7 hours): 2491.07
- Caspase-3/-7 Activation ([3]; ABBV-467 100 nM, 8 hours): 2431.58
- Caspase-3/-7 Activation ([3]; ABBV-467 100 nM, 9 hours): 2418.59
- Caspase-3/-7 Activation ([3]; ABBV-467 100 nM, 10 hours): 2357.71
- Caspase-3/-7 Activation ([3]; ABBV-467 100 nM, 11 hours): 2329.52
- Caspase-3/-7 Activation ([3]; ABBV-467 100 nM, 12 hours): 2294.27
- Caspase-3/-7 Activation ([3]; ABBV-467 100 nM, 13 hours): 2277.8
- Caspase-3/-7 Activation ([3]; ABBV-467 100 nM, 14 hours): 2211.71
- Caspase-3/-7 Activation ([3]; ABBV-467 100 nM, 15 hours): 2210.67
